Converted amounts (≈) assume the structure as drawn. The source made the active and inactive calls. The rule behind the calls is not given here.
Legend:
[1] = molecular target: TAK1/TAB1 (Homo sapiens, UniProt O43318); assay: Inhibition of recombinant human full-length His-tagged TAK1-TAB1 fusion protein (437 to 504 residues) expressed in baculovirus expression system using fluorescein-MAP2K1 as substrate preincubated for 30 mins followed by substrate addition and measured after 60 mins in presence of ATP by lanthascreen TR-FRET assay
[2] = Aqueous solubility of compound in pH 7.4 PBS buffer measured after 24 hrs by HPLC-UV analysis; assay type: physicochemical
[3] = Half life in human liver S9 fraction at 1 uM measured up to 60 mins in presence of NADPH by LC-MS analysis; assay type: ADME, subcellular
[4] = Half life in CD-1 mouse liver S9 fraction at 1 uM measured up to 60 mins in presence of NADPH by LC-MS analysis; assay type: ADME, subcellular
[5] = Half life in rat liver S9 fraction at 1 uM measured up to 60 mins in presence of NADPH by LC-MS analysis; assay type: ADME, subcellular
[6] = Apparent permeability across apical to basolateral side in human Caco-2 cells at 2 uM after 2 hrs by LC/MS-MS analysis; assay type: ADME, cell-based
[7] = Apparent permeability across basolateral to apical side in human Caco-2 cells at 2 uM after 2 hrs by LC/MS-MS analysis; assay type: ADME, cell-based
[8] = tested on: HCT-15; assay: Cytotoxicity against TNFalpha-induced human HCT-15 cells assessed as reduction in cell viability up to 10 uM preincubated for 2 hrs followed by TNFalpha stimulation and measured after 72 hrs by celltiter-glo assay; assay type: functional, cell-based; details: dose microM <=10, time 74.0 hrs

TAK1/TAB1, sequence (Q15750 whole entry, the tested form may be a part): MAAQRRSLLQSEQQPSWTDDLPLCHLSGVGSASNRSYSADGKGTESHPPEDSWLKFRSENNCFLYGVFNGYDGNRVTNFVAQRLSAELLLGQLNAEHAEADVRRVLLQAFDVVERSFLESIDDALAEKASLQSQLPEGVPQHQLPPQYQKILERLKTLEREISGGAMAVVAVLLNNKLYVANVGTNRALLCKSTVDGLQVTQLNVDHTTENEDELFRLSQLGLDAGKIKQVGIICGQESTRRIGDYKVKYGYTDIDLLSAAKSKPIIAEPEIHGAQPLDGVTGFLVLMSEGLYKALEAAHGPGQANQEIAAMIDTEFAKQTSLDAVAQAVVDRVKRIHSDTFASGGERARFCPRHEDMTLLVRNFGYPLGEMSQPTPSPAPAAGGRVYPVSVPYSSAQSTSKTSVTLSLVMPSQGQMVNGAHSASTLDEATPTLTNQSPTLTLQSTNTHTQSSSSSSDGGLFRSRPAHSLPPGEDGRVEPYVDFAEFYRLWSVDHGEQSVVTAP
TAK1/TAB1, sequence (O43318 whole entry, the tested form may be a part): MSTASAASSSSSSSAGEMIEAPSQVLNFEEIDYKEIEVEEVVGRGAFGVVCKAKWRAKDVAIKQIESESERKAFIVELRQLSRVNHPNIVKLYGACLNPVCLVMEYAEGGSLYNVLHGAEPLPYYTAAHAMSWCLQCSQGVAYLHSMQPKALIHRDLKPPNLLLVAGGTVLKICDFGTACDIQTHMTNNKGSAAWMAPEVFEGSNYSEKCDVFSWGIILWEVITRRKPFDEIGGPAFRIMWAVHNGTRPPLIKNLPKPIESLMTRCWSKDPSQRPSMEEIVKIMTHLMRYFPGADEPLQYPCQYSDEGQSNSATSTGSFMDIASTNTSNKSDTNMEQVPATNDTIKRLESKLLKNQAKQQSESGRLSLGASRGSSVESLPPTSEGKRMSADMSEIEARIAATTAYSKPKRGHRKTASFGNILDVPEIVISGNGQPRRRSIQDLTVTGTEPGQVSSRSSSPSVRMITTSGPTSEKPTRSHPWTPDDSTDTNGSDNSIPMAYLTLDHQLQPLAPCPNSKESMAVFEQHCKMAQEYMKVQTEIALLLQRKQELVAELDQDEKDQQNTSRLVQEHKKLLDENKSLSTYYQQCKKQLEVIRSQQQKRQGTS

SMILES: CNC(=O)CN(Cc1ccccc1OC(F)F)C(=O)c1c[nH]c(C(=O)N2CCCC2C)n1 (centres undefined)
- IC50 [1]: 5700 nM

SMILES: CNC(=O)CN(Cc1ccccc1OC(F)F)C(=O)c1c[nH]c(C(=O)N2CCC(OC)C2)n1 (centres undefined)
- IC50 [1]: > 10000 nM

SMILES: NC(=O)CN(Cc1ccccc1OC(F)F)C(=O)c1c[nH]c(C(=O)N2CCCC2)c1
- IC50 [1]: 900 nM

SMILES: CN(Cc1ccccc1OC(F)F)C(=O)c1c[nH]c(C(=O)N2CCCC2)c1
- IC50 [1]: 3500 nM

SMILES: CNC(=O)CN(Cc1ccccc1OC(F)F)C(=O)c1c[nH]c(C(=O)N2CC3CCCCC3C2)n1 (centres undefined)
- IC50 [1]: 3400 nM

SMILES: CNC(=O)CN(Cc1ccccc1OC(F)F)C(=O)c1c[nH]c(C(=O)N2CCC(C)C2)n1 (centres undefined)
- IC50 [1]: 900 nM

SMILES: CNC(=O)CN(Cc1ccccc1OC(F)F)C(=O)c1cc(C(=O)N2CCCC2)n(C)c1
- IC50 [1]: > 100000 nM

SMILES: CNC(=O)[C@@H](C)N(Cc1ccccc1OC(F)F)C(=O)c1c[nH]c(C(=O)N2Cc3ccc(C(N)=O)cc3C2)n1
- IC50 [1]: 2 nM
- solubility at 24 h [2]: 5 µM (≈ 2.7 µg/mL)
- half-life at 1 µM [3]: 24 min
- half-life at 1 µM [4]: 29 min
- half-life at 1 µM [5]: 19 min
- Papp A→B at 2 h, 2 µM [6]: 0.1 ×10⁻⁶ cm/s
- Papp B→A at 2 h, 2 µM [7]: 6 ×10⁻⁶ cm/s
- Activity [8]: inactive

SMILES: CNC(=O)CN(Cc1ccccc1OC(F)F)C(=O)c1c[nH]c(C(=O)N2CCCCC2)c1
- IC50 [1]: 1800 nM

SMILES: CNC(=O)CN(Cc1cc(F)ccc1OC(F)F)C(=O)c1c[nH]c(C(=O)N2CCCC2)n1
- IC50 [1]: > 10000 nM

SMILES: CNC(=O)CN(Cc1ccccc1OC)C(=O)c1c[nH]c(C(=O)N2CCCC2)c1
- IC50 [1]: 2800 nM

SMILES: CNC(=O)CN(C(=O)c1c[nH]c(C(=O)N2CCCC2)n1)C(C)c1ccccc1OC(F)F (centres undefined)
- IC50 [1]: > 10000 nM

SMILES: CNC(=O)CN(Cc1ccccc1OC(F)F)C(=O)c1c[nH]c(C(=O)N2CCC(c3ccccc3)C2)n1 (centres undefined)
- IC50 [1]: 2300 nM

SMILES: CNC(=O)CN(Cc1c(F)cccc1OC(F)F)C(=O)c1c[nH]c(C(=O)N2CCCC2)n1
- IC50 [1]: > 10000 nM

SMILES: CNC(=O)CN(Cc1ccccc1OC(F)F)C(=O)c1c[nH]c(C(=O)N2Cc3ccccc3C2)n1
- IC50 [1]: 300 nM

SMILES: CNC(=O)CN(Cc1cccc(OC)c1OC(F)F)C(=O)c1c[nH]c(C(=O)N2CCCC2)n1
- IC50 [1]: > 10000 nM

SMILES: CNC(=O)CN(Cc1ccccc1OC(F)F)C(=O)c1c[nH]c(C(=O)N(C)C)c1
- IC50 [1]: 26000 nM

SMILES: CNC(=O)CN(Cc1ccccc1OC(F)F)C(=O)c1c[nH]c(C(=O)N2CCC(F)C2)n1 (centres undefined)
- IC50 [1]: 1200 nM

SMILES: CNC(=O)C(C)N(Cc1ccccc1OC(F)F)C(=O)c1c[nH]c(C(=O)N2CCCC2)n1 (centres undefined)
- IC50 [1]: 500 nM

SMILES: CNC(=O)CN(Cc1ccccc1OC(F)F)C(=O)c1c[nH]c(C(=O)N2CCCCC2)n1
- IC50 [1]: 1200 nM

SMILES: CNC(=O)[C@@H](C)N(Cc1ccccc1OC(F)F)C(=O)c1c[nH]c(C(=O)N2CCCC2)n1
- IC50 [1]: 300 nM

SMILES: CNC(=O)CN(Cc1ccccc1OC(F)F)C(=O)c1c[nH]c(C(=O)N2CCCC2)c1
- IC50 [1]: 1300 nM

From ChEMBL document CHEMBL4706727, “Discovery of 2,4-1H-Imidazole Carboxamides as Potent and Selective TAK1 Inhibitors” (ACS Med Chem Lett, 2021)
